Laboratory results as given in patent publication US20240293337A1, “USE OF DOXERCALCIFEROL TO TREAT AND/OR PREVENT UTERINE FIBROIDS OR POLYCYSTIC OVARY SYNDROME” (priority 2023, published 2024).

How the values were obtained:
H295R cells [1] = assay: Testosterone production in H295R cell conditioned media (ELISA); format: cell-based, human; conditions: 24 hours
Protocol: (§1) H295R cells are subcultured in T75 flasks for 24 hours. Cells are then treated for 24 hours with serum free basal media as a control or doxercalciferol at 1 nM, 10 nM, or 100 nM diluted in basal media (serum-free) at a 1:1 ratio. After the incubation period, cells are imaged and analyzed for morphology and cell count. Cells are then collected for analysis of steroidogenesis-related gene expression. Cell culture media are collected and used for testosterone quantification using ELISA based Testosterone Parameter Assay Kit (R&D system) per the manufacturer's protocol. The testosterone level is quantified using a multimode microplate reader system, Varioskan LUX Multimode Microplate Reader (Thermo Fisher).

H295R cells [2] = assay: H295R theca-like cells, cell morphology and cell number after 24 h treatment; format: cell-based, human; conditions: 100 nM
Protocol: Human adrenocortical-carcinoma cells (H295R cells) are used as an in vitro cell culture model of ovarian theca cells to assess androgen production. H295R cells are purchased from ATCC (Manassas, VA, USA, cat. no. ATCC® CRL-2128™) and cultured per the recommended guidelines. These cells are isolated from a donor. Briefly, H295R cells are cultured in flasks pre-coated with extracellular matrix (Gibco, USA, cat. no. S-006-100) with DMEM/F12 (Gibco, cat. no. 21041025) and 2.5% Nu-Serum (Corning, USA). The cells are subcultured at a ratio of 1:4, resulting in a cell density of approximately 3×10^6 in T75 flasks.
as §1

[3] = Serum chemistry in PCOS mice; format: in vivo, C57BL/6 mice; conditions: PCOS mice treated with doxercalciferol, n 7
Protocol: (§2) Five weeks after placebo or LTZ pellet implantation, mice undergo intraperitoneal injection of doxercalciferol (300 ng/kg) or saline 3 times per week for 6 weeks. Six weeks after doxercalciferol treatment, the mice are anesthetized and ovary, uterus, gonadal white fat, kidney, and liver tissue are collected. Each of these tissues are fixed in 4% paraformaldehyde for further histological analysis.
Blood is collected from all groups by cardiac exsanguination under isoflurane anesthesia: serum is separated and stored at −80° C. Serum chemistry analysis including BUN, ALT, ALP, AST, TBIL, calcium, TP, ALB, and NA+ is performed in University of Chicago Animal Resource Center (UC ARC) with VETSCAN® VS2 Chemistry Analyzer (Zoetis).

[4] = tested on: letrozole induced polycystic ovary syndrome (PCOS) mouse models; assay: Breeding experiments in PCOS mice; format: in vivo, C57BL/6 mice
Protocol: as §2
After doxercalciferol treatment, 6 mice per group from the PCOS experiments are randomly selected for the breeding experiment. One male C57BL/6 breeder mouse is used for every two female mice. The male and female mice are caged together for 10 days. Mating is determined by the presence of sperm plug in the vagina. The pregnancy rate, required time for pregnancy, average number of pups, total live and dead pups, and mouse pup weight and growth rate at birth and days 5 and 10 postpartum are measured.

[5] = Body weight in letrozole induced PCOS mouse model; format: in vivo, C57BL/6 mice; conditions: 300 ng/kg i.p. 3 times per week for 6 weeks
Protocol: 2.5-week-old female C57BL/6 mice (Charles River, MA, USA) are housed in a vivarium for 1 week under specific pathogen-free conditions. The animal experiment protocol for this study is approved, and all animal experiments are performed in compliance with policies and guidelines for use of laboratory animals. At 3.5 weeks of age, mice (n=11/group) are subcutaneously implanted with a placebo or 5 mg letrozole (LTZ) pellet (Innovative Research of America, Sarasota, FL, USA), which provides a constant release of LTZ (50 μg/day). Body weight is monitored weekly before and post-implantation. Body weight and insulin resistance (measured by glucose tolerance test, GTT) are used to monitor development of PCOS characteristics. Five weeks after placebo or LTZ pellet implantation, mice undergo intraperitoneal injection of doxercalciferol (300 ng/kg) or saline 3 times per week for 6 weeks. Six weeks after doxercalciferol treatment, the mice are anesthetized and ovary, uterus, gonadal white fat, kidney, and liver tissue are collected. Each of these tissues are fixed in 4% paraformaldehyde for further histological analysis.

[6] = tested on: letrozole induced polycystic ovary syndrome (PCOS) mouse models; assay: Glucose tolerance test in PCOS mice; format: in vivo, C57BL/6 mice; conditions: 300 ng/kg i.p. 3 times per week, 120 minutes after IP glucose injection
Protocol: At 3.5 weeks of age, mice (n=11/group) are subcutaneously implanted with a placebo or 5 mg letrozole (LTZ) pellet (Innovative Research of America, Sarasota, FL, USA), which provides a constant release of LTZ (50 μg/day). Body weight is monitored weekly before and post-implantation. Body weight and insulin resistance (measured by glucose tolerance test, GTT) are used to monitor development of PCOS characteristics.
as §2
Glucose tolerance testing is performed on healthy, PCOS, and treated mice 3 weeks after doxercalciferol treatment. Mice are fasting for 16 h (5 p.m. to 9 a.m.), with free access to drinking water, after which they receive an intra-peritoneal (i.p.) injection of D-glucose (2.0 g/kg body weight). Blood glucose level is measured at 0, 15, 30, 60, 90, and 120 minutes following glucose injection using a Bayer glucose monitor (Roche Diagnostics Corp, IN, USA).

[7] = tested on: letrozole induced polycystic ovary syndrome (PCOS) mouse models; assay: Histology (H&E) of PCOS mouse tissues; format: in vivo, C57BL/6 mice; conditions: after five weeks of treatment
Protocol: […] […] Each of these tissues are fixed in 4% paraformaldehyde for further histological analysis. Ovary, uterus, gonadal white fat, kidney, and liver tissue are collected and fixed in 4% paraformaldehyde. Tissue sections are stained with hematoxylin-eosin (H&E). Histological analyses are performed using Asperio ImageScope (Leica Biosystem, Wetzlar, Germany).

[8] = PCOS mice, 300 ng/kg i.p. 3 times per week for 6 weeks

C=C1/C(=C\C=C2/CCC[C@]3(C)[C@@H]([C@H](C)/C=C/[C@H](C)C(C)C)CC[C@@H]23)C[C@@H](O)C[C@@H]1O [doxercalciferol]
Testosterone production (H295R cells [1]; 1 nM): significantly decreased | Testosterone production (H295R cells [1]; 10 nM): not significantly changed | Testosterone production (H295R cells [1]; 100 nM): significantly decreased | cell morphology (H295R cells [2]): most of the cells in the 100 nM doxercalciferol treatment group are dead | cell number (H295R cells [2]; vs other groups): significantly fewer cells | ALB, Mean [3]: 3.9 g/dL | ALP, Mean [3]: 76 U/L | ALT, Mean [3]: 66 U/L | AST, Mean [3]: 144 U/L | BUN, Mean [3]: 22 mg/dL | CA, Mean [3]: 12.9 mg/dL | NA+, Mean [3]: 149 mmol/L | TBIL, Mean [3]: 0.4 mg/dL | TP, Mean [3]: 4.7 g/dL | average number of live pups, vs control mice [4, 8]: no significant difference | average number of live pups, vs untreated PCOS [4, 8]: increased the average number of live pups | required time for pregnancy after introduction to a potential mate [4, 8]: about 2 weeks | pregnancy rate ([4]; PCOS mice, 300 ng/kg i.p. 3 times per week for 6 weeks (PCOS 20%, control 83.3%)): 50% | total number of live pups, vs untreated PCOS ([4]; PCOS mice, 300 ng/kg i.p. 3 times per week for 6 weeks, not to the levels of control mice): increases the total number of live pups | average weight of pups, vs control mice ([4]; pups of treated PCOS mice, 5 days postpartum): significantly lower | average weight of pups, vs control and PCOS ([4]; pups of treated PCOS mice, 10 days postpartum): no significant difference | average weight of pups, vs control mice ([4]; pups of treated PCOS mice, at birth): significantly lower | growth of pups, vs control and PCOS ([4]; pups of treated PCOS mice, at birth, 5 days and 10 days postpartum): no significant difference | mouse body weight after treatment, vs control mice [5]: no significant weight difference | mouse body weight after treatment, vs untreated PCOS mice [5]: PCOS mice weigh significantly more than both control and doxercalciferol treated PCOS mice | mouse body weight during treatment ([5]; PCOS mice): lowers PCOS mouse weight | blood glucose levels, vs control mice [6]: elevated levels compared to control mice | blood glucose levels, vs untreated PCOS mice [6]: significantly lower blood glucose levels | kidney and liver histology ([7]; PCOS mice): no significant evidence of tissue damage or inflammation | ovary histology (follicles) ([7]; PCOS mice, untreated PCOS mice have numerous cysts): good numbers of follicles | gonad white fat histology, adipocyte size vs untreated PCOS mice [7]: reduced adipocyte size | uterus histology, vs untreated PCOS mice [7]: improved uterine epithelial cell organization
